In US11427567B2, “Imidazolyl pyrimidinylamine compounds as CDK2 inhibitors” (Incyte Corporation, priority 2019, dated 2022) one finds IC50 data, which are given here for 25 compounds.

The structures appear in SMILES notation. pIC50: −log10 of the molar value. A value given as a limit tells only on which side of the number the result lay.

One may read the pIC50 as −log10 of the IC50, conventionally taken in molar units. Read a low pIC50 as a large IC50.

This experiment has as its target CDK2/Cyclin E1 (Homo sapiens (Human), UniProt P24941). The experiment in a line: CDK2/Cyclin E1 HTRF enzyme activity assay (Example A). The class given is biochemical. Particulars: 1 mM ATP. As for the experimental part:
Assays were conducted in white 384-well polystyrene plates in a final reaction volume of 8 μL. […] HTRF signals were read after 1 hour at room temperature on a PHERAstar FS plate reader (BMG Labtech). Data was analyzed with IDBS XLFit and GraphPad Prism 5.0 software using a three or four parameter dose response curve to determine IC50 for each compound.
For orientation: In TR-FRET formats the signal depends on donor and acceptor labels being close together.

On to `Cc1nc(-c2nc(NC3CCN(S(C)(=O)=O)CC3)ncc2C(F)(F)F)cn1-c1ccc(OC[C@@H]2CCCN2C)cc1F` [Example 425, (S)-4-(1-(2-Fluoro-4-((1-methylpyrrolidin-2-yl)methoxy)phenyl)-2-methyl-1H-imidazol-4-yl)-N-(1-(methylsulfonyl)piperidin-4-yl)-5-(trifluoromethyl)pyrimidin-2-amine], for which the pIC50 is ≥ 7.30.

As to `Cc1nc(-c2nc(NC3CCN(S(C)(=O)=O)CC3)ncc2C(F)(F)F)cn1-c1ccc(OC[C@H]2CCCN2C)cc1F` [Example 426, (R)-4-(1-(2-Fluoro-4-((1-methylpyrrolidin-2-yl)methoxy)phenyl)-2-methyl-1H-imidazol-4-yl)-N-(1-(methylsulfonyl)piperidin-4-yl)-5-(trifluoromethyl)pyrimidin-2-amine], the negative logarithm of the IC50 (pIC50) was ≥ 7.30. Take `CC(C)N1CC(c2ccc(-n3cnc(-c4nc(NC5CCN(S(C)(=O)=O)CC5)ncc4C(F)(F)F)c3)c(C#N)c2)C1` [Example 427, 5-(1-Isopropylazetidin-3-yl)-2-(4-(2-((1-(methylsulfonyl)piperidin-4-yl)amino)-5-(trifluoromethyl)pyrimidin-4-yl)-1H-imidazol-1-yl)benzonitrile]: the pIC50 was ≥ 7.30. For the compound `CN1CC(c2ccc(-n3cnc(-c4nc(NC5CCN(S(C)(=O)=O)CC5)ncc4C(F)(F)F)c3)c(C#N)c2)C1` [Example 428, 5-(1-Methylazetidin-3-yl)-2-(4-(2-((1-(methylsulfonyl)piperidin-4-yl)amino)-5-(trifluoromethyl)pyrimidin-4-yl)-1H-imidazol-1-yl)benzonitrile], the pIC50 was ≥ 7.30. On to `CCN1CC(c2ccc(-n3cnc(-c4nc(NC5CCN(S(C)(=O)=O)CC5)ncc4C(F)(F)F)c3)c(C#N)c2)C1` [Example 429, 5-(1-Ethylazetidin-3-yl)-2-(4-(2-((1-(methylsulfonyl)piperidin-4-yl)amino)-5-(trifluoromethyl)pyrimidin-4-yl)-1H-imidazol-1-yl)benzonitrile], for which the pIC50 is ≥ 7.30. For the compound `CN1CCN(c2ccc(-n3cnc(-c4nc(NC5CCN(S(C)(=O)=O)CC5)ncc4C(F)(F)F)c3)c(C#N)c2)CC1` [Example 430, 5-(4-Methylpiperazin-1-yl)-2-(4-(2-((1-(methylsulfonyl)piperidin-4-yl)amino)-5-(trifluoromethyl)pyrimidin-4-yl)-1H-imidazol-1-yl)benzonitrile], the pIC50 is ≥ 7.30. Next, `CNCCN(C)c1ccc(-n2cnc(-c3nc(NC4CCN(S(C)(=O)=O)CC4)ncc3C(F)(F)F)c2)c(C#N)c1` [Example 431, 5-(Methyl(2-(methylamino)ethyl)amino)-2-(4-(2-((1-(methylsulfonyl)piperidin-4-yl)amino)-5-(trifluoromethyl)pyrimidin-4-yl)-1H-imidazol-1-yl)benzonitrile]: ≥ 7.30; `CN(C)CCNc1ccc(-n2cnc(-c3nc(NC4CCN(S(C)(=O)=O)CC4)ncc3C(F)(F)F)c2)c(C#N)c1` [Example 432, 5-((2-(Dimethylamino)ethyl)amino)-2-(4-(2-((1-(methylsulfonyl)piperidin-4-yl)amino)-5-(trifluoromethyl)pyrimidin-4-yl)-1H-imidazol-1-yl)benzonitrile]: ≥ 7.30. As for `CN(C)CCc1ccc(-n2cnc(-c3nc(NC4CCN(S(C)(=O)=O)CC4)ncc3C(F)(F)F)c2)c(C#N)c1` [Example 433, 5-(2-(Dimethylamino)ethyl)-2-(4-(2-((1-(methylsulfonyl)piperidin-4-yl)amino)-5-(trifluoromethyl)pyrimidin-4-yl)-1H-imidazol-1-yl)benzonitrile], the figure is ≥ 7.30; as for `CS(=O)(=O)N1CCC(Nc2ncc(C(F)(F)F)c(-c3cn(-c4ccc(CCN5CCCC5)cc4C#N)cn3)n2)CC1` [Example 434, 2-(4-(2-((1-(Methylsulfonyl)piperidin-4-yl)amino)-5-(trifluoromethyl)pyrimidin-4-yl)-1H-imidazol-1-yl)-5-(2-(pyrrolidin-1-yl)ethyl)benzonitrile], ≥ 7.30; as for `CN(C)CCOc1ccc(-n2cnc(-c3nc(NC4CCN(S(C)(=O)=O)CC4)ncc3C(F)(F)F)c2)c(C#N)c1` [Example 435, 5-(2-(Dimethylamino)ethoxy)-2-(4-(2-((1-(methylsulfonyl)piperidin-4-yl)amino)-5-(trifluoromethyl)pyrimidin-4-yl)-1H-imidazol-1-yl)benzonitrile], ≥ 7.30. As for `CCOc1ccc(-n2cnc(-c3nc(NC4CCN(S(C)(=O)=O)CC4)ncc3C(F)(F)F)c2)c(C#N)c1` [Example 436, 5-Ethoxy-2-(4-(2-((1-(methylsulfonyl)piperidin-4-yl)amino)-5-(trifluoromethyl)pyrimidin-4-yl)-1H-imidazol-1-yl)benzonitrile], the figure is ≥ 7.30; as for `CS(=O)(=O)N1CCC(Nc2ncc(C(F)(F)F)c(-c3cn(-c4ccc(OCCN5CCCC5)cc4C#N)cn3)n2)CC1` [Example 437, 2-(4-(2-((1-(Methylsulfonyl)piperidin-4-yl)amino)-5-(trifluoromethyl)pyrimidin-4-yl)-1H-imidazol-1-yl)-5-(2-(pyrrolidin-1-yl)ethoxy)benzonitrile], ≥ 7.30; as for `CCN1CCC(c2ccc(-n3cnc(-c4nc(NC5CCN(S(C)(=O)=O)CC5)ncc4C(F)(F)F)c3)c(Cl)c2)CC1` [Example 438, 4-(1-(2-Chloro-4-(1-ethylpiperidin-4-yl)phenyl)-1H-imidazol-4-yl)-N-(1-(methylsulfonyl)piperidin-4-yl)-5-(trifluoromethyl)pyrimidin-2-amine], ≥ 7.30. As for `CN1CCC(c2ccc(-n3cnc(-c4nc(NC5CCN(S(C)(=O)=O)CC5)ncc4C(F)(F)F)c3)c(Cl)c2)CC1` [Example 439, 4-(1-(2-Chloro-4-(1-methylpiperidin-4-yl)phenyl)-1H-imidazol-4-yl)-N-(1-(methylsulfonyl)piperidin-4-yl)-5-(trifluoromethyl)pyrimidin-2-amine], the pIC50 is ≥ 7.30. With `CN1CC(c2ccc(-n3cnc(-c4nc(NC5CCN(S(C)(=O)=O)CC5)ncc4C(F)(F)F)c3)c(Cl)c2)C1` [Example 440, 4-(1-(2-Chloro-4-(1-methylazetidin-3-yl)phenyl)-1H-imidazol-4-yl)-N-(1-(methylsulfonyl)piperidin-4-yl)-5-(trifluoromethyl)pyrimidin-2-amine], the negative-log IC50 (pIC50) is ≥ 7.30.

Regarding `CS(=O)(=O)N1CCC(Nc2ncc(C(F)(F)F)c(-c3cn(-c4ccc(CN5CCOC5=O)cc4Cl)cn3)n2)CC1` [Example 441, 3-(3-Chloro-4-(4-(2-((1-(methylsulfonyl)piperidin-4-yl)amino)-5-(trifluoromethyl)pyrimidin-4-yl)-1H-imidazol-1-yl)benzyl)oxazolidin-2-one], the pIC50 is ≥ 7.30. As to `CS(=O)(=O)N1CCC(Nc2ncc(C(F)(F)F)c(-c3cn(-c4ccccc4Br)cn3)n2)CC1` [Example 442, 4-(1-(2-Bromophenyl)-1H-imidazol-4-yl)-N-(1-(methylsulfonyl)piperidin-4-yl)-5-(trifluoromethyl)pyrimidin-2-amine], the negative-log IC50 (pIC50) was ≥ 7.30.

For the compound `CN1CCN(Cc2cc(F)c(-n3cnc(-c4nc(N[C@H]5CCN(S(C)(=O)=O)C[C@H]5F)ncc4C(F)(F)F)c3)c(F)c2)CC1` [Example 443, 4-(1-(2,6-Difluoro-4((4-methylpiperazin-1-yl)methyl)phenyl)-1H-imidazol-4-yl)-N-((3R,4S)-3-fluoro-1-(methylsulfonyl)piperidin-4-yl)-5-(trifluoromethyl)pyrimidin-2-amine], the pIC50 was ≥ 7.30.

Regarding `CCNCc1cc(F)c(-n2cnc(-c3nc(N[C@H]4CCN(S(C)(=O)=O)C[C@H]4F)ncc3C(F)(F)F)c2)c(F)c1` [Example 444, 4-(1-(4-((Ethylamino)methyl)-2,6-difluorophenyl)-1H-imidazol-4-yl)-N-((3R,4S)-3-fluoro-1-(methylsulfonyl)piperidin-4-yl)-5-(trifluoromethyl)pyrimidin-2-amine], the pIC50 is ≥ 7.30.

On to `CCN1CCN(Cc2ccc(-n3cc(-c4nc(N[C@H]5CCN(S(C)(=O)=O)C[C@H]5F)ncc4C(F)(F)F)nc3C)c(F)c2)CC1` [Example 445, 4-(1-(4-((4-Ethylpiperazin-1-yl)methyl)-2-fluorophenyl)-2-methyl-1H-imidazol-4-yl)-N-((3R,4S)-3-fluoro-1-(methylsulfonyl)piperidin-4-yl)-5-(trifluoromethyl)pyrimidin-2-amine], for which the pIC50 was ≥ 7.30. In the case of `Cc1nc(-c2nc(N[C@H]3CCN(S(C)(=O)=O)C[C@H]3F)ncc2C(F)(F)F)cn1-c1ccc(CN2CCC(C)(O)CC2)cc1F` [Example 446, 1-(3-Fluoro-4-(4-(2-(((3R,4S)-3-fluoro-1-(methylsulfonyl)piperidin-4-yl)amino)-5-(trifluoromethyl)pyrimidin-4-yl)-2-methyl-1H-imidazol-1-yl)benzyl)-4-methylpiperidin-4-ol], the pIC50 is ≥ 7.30. Regarding `CCN1CCN(Cc2cc(F)c(-n3cnc(-c4nc(N[C@H]5CCN(S(C)(=O)=O)C[C@H]5F)ncc4C(F)(F)F)c3)c(F)c2)CC1` [Example 447, 4-(1-(4-((4-Ethylpiperazin-1-yl)methyl)-2,6-difluorophenyl)-1H-imidazol-4-yl)-N-((3R,45)-3-fluoro-1-(methylsulfonyl)piperidin-4-yl)-5-(trifluoromethyl)pyrimidin-2-amine], the pIC50 is ≥ 7.30.

Consider `CS(=O)(=O)N1CCC(Nc2ncc(C(F)(F)F)c(-c3cn(-c4ccc(CNCC(F)F)cc4C(F)(F)F)cn3)n2)CC1` [Example 448, 4-(1-(4-(((2,2-Difluoroethyl)amino)methyl)-2-(trifluoromethyl)phenyl)-1H-imidazol-4-yl)-N-(1-(methylsulfonyl)piperidin-4-yl)-5-(trifluoromethyl)pyrimidin-2-amine], for which the pIC50 was ≥ 7.30. As for `CC1(O)CN(Cc2ccc(-n3cnc(-c4nc(NC5CCN(S(C)(=O)=O)CC5)ncc4C(F)(F)F)c3)c(C(F)(F)F)c2)C1` [Example 449, 3-Methyl-1-(4-(4-(2-((1-(methylsulfonyl)piperidin-4-yl)amino)-5-(trifluoromethyl)pyrimidin-4-yl)-1H-imidazol-1-yl)-3-(trifluoromethyl)benzyl)azetidin-3-ol], the figure is ≥ 7.30.
